Data reported in patent US20260174741A1, “METHODS OF REDUCING MIRO1 OR PHOSPHORYLATED ALPHA-SYNUCLEIN” (Acurex Biosciences Corporation, priority 2022, published 2026).
Like-named read-outs stand apart in the source and are kept apart here.

Experiments:
[1] = tested on: tyrosine-hydroxylase positive (TH+) dopaminergic neurons; assay: Rat primary midbrain neuron co-culture, alpha-synuclein oligomer challenge with co-dosed/pre-treated compound: TH+ neuron count and neurite length; type: cell-based; conditions: for EC50: Rattus norvegicus, Neuron; for TH+ neurite length / TH+ neuron count: absence of any neuronal challenge; for dopamine neuron survival / dopamine neuron neurite length: dose-response experiment; for dopamine neuron survival: alpha-synuclein oligomer challenge (FIG. 2A, 5A); for dopamine neuron neurite length: alpha-synuclein oligomer challenge (FIG. 2B, 5B); for TH+ dopaminergic neuron neurite length / TH-positive dopaminergic neuron viability: immunocytochemistry, alpha-synuclein oligomers 500 nM, 96 hours
Description: (§1) The neuronal challenge was alpha-synuclein oligomers.
(§2) After incubation with alpha-synuclein (α-syn) oligomer, cells were fixed by a solution of 4% paraformaldehyde for 20 min at room temperature, the control conditions were fixed as well following the same procedure. The cells were then permeabilized and non-specific sites were blocked with a solution of phosphate buffered saline containing (PBS) with saponin and FCS for 15 min at room temperature. Cells were incubated with a chicken Anti-Tyrosine Hydroxylase antibody (TH, Abcam, ref 76442), a mouse monoclonal Anti-α-syn P129 antibody (Abcam, ref ab184674) and a Rabbit polyclonal Anti-Miro1 antibody (Sigma, ref: HPA010687) in PBS with saponin and FCS overnight at 4° C. […] Nuclei of cells were labelled by a fluorescent marker (Hoechst solution) in the same solution.
(§3) For each well of culture, pictures were taken using InCell Analyzer™ 2200 (GE Healthcare) with 20× magnification. All the images were taken in the same conditions. The number of dopaminergic neurons (TH), the neurite length of dopaminergic neurons, the signal of phosphorylated 129 of α-syn in dopaminergic neurons and the signal of Miro1 in dopaminergic neurons were automatically evaluated with Developer system analysis (GE Healthcare). All values were expressed as mean±standard error of the mean. Statistical analyses were done on the different conditions (ANOVA followed by Dunnett's test).
(§4) In an initial study, rat primary midbrain neuron co-cultures were incubated with alpha-synuclein oligomer alone, with 400 nM Compound 1, or with positive control.
(§5) Immunocytochemistry was performed for DAPI (nuclear dye), Tyrosine Hydroxylase (TH, a marker for dopaminergic neurons), and phospho-Serine129 alpha-synuclein (pS129 α-syn, a pathogenic form of alpha-synuclein found in Lewy Body pathology) in primary rat midbrain neuron co-cultures. In naive untreated neuronal cultures, healthy TH-positive dopaminergic neurons with elaborate neurites were observed and there was very low pS129 α-synbackground signal. When these neuronal cultures were stressed with toxic exogenous alpha-synuclein oligomers (500 nM, 96 hours), there was a large and statistically significant (1) loss of TH+dopaminergic neuron viability, (2) decrease of TH+dopaminergic neuron neurite length, (3) increase in pS129 α-syn-positive Lewy Body formation, and (4) increase in Miro1 protein levels.

[2] = tested on: phosphorylated serine-129 (pS129) alpha-synuclein; assay: Rat primary midbrain neuron co-culture, alpha-synuclein oligomer challenge with co-dosed/pre-treated compound: pS129 alpha-synuclein; type: cell-based; conditions: for IC50: Rattus norvegicus, Neuron, read-out: IC50 for lowering pathogenic pS129 alpha-synuclein; for number of pS129+ TH+ neurons: absence of any neuronal challenge; for levels of pathogenic pS129 alpha-synuclein: dose-response experiment, alpha-synuclein oligomer challenge (FIG. 3A, 6A); for pS129 alpha-syn-positive Lewy Body formation / pS129 alpha-syn-positive Lewy Body formation in TH-negative non-dopaminergic neurons: immunocytochemistry; for pS129 alpha-syn-positive Lewy Body formation: alpha-synuclein oligomers 500 nM, 96 hours; for pS129 alpha-syn-positive Lewy Body formation in TH-negative non-dopaminergic neurons: alpha-synuclein oligomers
Description: as §1, §2, §3, §4, §5

Miro1 [3] = assay: Rat primary midbrain neuron co-culture, alpha-synuclein oligomer challenge with co-dosed/pre-treated compound: Miro1 levels; type: cell-based; conditions: for Miro1 levels: absence of any neuronal challenge; for rescue of Miro1 elevation due to alpha-synuclein oligomer challenge: dose-response experiment (FIG. 3B, 6B); for Miro1 protein levels: immunocytochemistry, alpha-synuclein oligomers 500 nM, 96 hours; for Miro1 release: initial study
Description: as §1, §2, §3, §4, §5

[4] = tested on: TH+ neurite length of rat dopaminergic neurons; assay: Interventional treatment of rat dopaminergic neurons after alpha-synuclein oligomer injury: TH+ neurite length; type: cell-based; conditions: interventional: 2 days alpha-syn oligomer, then 2 more days with compound
Description: (§6) Rat dopaminergic neurons were cultured as previously described (Schinelli, S. et al. Journal of Neurochemistry 1988, 50(6), pages 1900-1907). After 7 days of culture, cells were challenged with alpha-synuclein oligomer (500 nM) for 48 hours. […] By condition, N=6 wells were performed and one plate of 96 wells were performed.
(§7) After 4 days of incubation with α-syn oligomer, cells were fixed by a solution of 4% paraformaldehyde for 20 min at room temperature, the control conditions were fixed as well following the same procedure. The cells were then permeabilized and non-specific sites were blocked with a solution of phosphate buffered saline containing (PBS) with saponin and FCS for 15 min at room temperature. […]
(§8) For each well of culture, pictures were taken using InCell Analyzer™ 2200 (GE Healthcare) with 20× magnification. […] The number of dopaminergic neurons (TH), the neurite length of dopaminergic neurons, the signal of phosphorylated 129 of α-syn in dopaminergic neurons and the signal of Miro1 in dopaminergic neurons were automatically evaluated with Developer system analysis (GE Healthcare). All values were expressed as mean±standard error of the mean. […]

[5] = tested on: phosphorylated Ser129 alpha-synuclein; assay: Interventional treatment of rat dopaminergic neurons after alpha-synuclein oligomer injury: phosphorylated Ser129-positive TH+ neurons; type: cell-based; conditions: interventional: 2 days alpha-syn oligomer 500 nM, then 2 more days with compound
Description: as §6, §7, §8

Miro1 [6] = assay: Interventional treatment of rat dopaminergic neurons after alpha-synuclein oligomer injury: Miro1 levels in TH+ neurons; type: cell-based; conditions: 4 days total, doses from 123 nM to 10 μM, compared to no treatment (FIG. 9)
Description: Rat dopaminergic neurons were cultured as previously described (Schinelli, S. et al. Journal of Neurochemistry 1988, 50(6), pages 1900-1907). After 7 days of culture, cells were challenged with alpha-synuclein oligomer (500 nM) for 48 hours. Subsequent to the challenge, cells were subjected to alpha-synuclein (α-syn) oligomer (500 nM)+various concentrations of Compound 1 (0, 14, 41, 123, 370, 1100, 3300, and 10000 nM) for an additional 48 hours. By condition, N=6 wells were performed and one plate of 96 wells were performed.
as §7, §8

[7] = tested on: tyrosine-hydroxylase positive (TH+) dopaminergic neurons; assay: Rat primary midbrain neuron co-culture, alpha-synuclein oligomer challenge with co-dosed/pre-treated compound: TH+ neuron count and neurite length; type: cell-based; conditions: initial study, 40 nM, incubated with alpha-synuclein oligomer (FIG. 4A)
[8] = tested on: Parkinson's disease subject-derived fibroblast lines; assay: Ferroptosis assay: human fibroblast survival assay with RSL3 challenge; type: cell-based; conditions: DAPI-positive nuclei count, read-out: EC50 for cell survival (ferroptosis inhibition)
Description: Human fibroblast survival assay. All fibroblasts were obtained from the National Institute of Neurological Disorders and Stroke (NINDS) cell line repository housed at Rutgers University. Compounds were tested in at least one of the following Parkinson's disease subject-derived fibroblast lines: Line ND29802 (LRRK2 G2019S mutation carrier), Line ND40996 (SNCA A53T mutation carrier), or Line ND34263 (GBA N370S mutation carrier).
Human fibroblasts were seeded into 96-well plates on Day 0. On Day 1, fibroblasts were challenged with RSL3 (a ferroptosis activator, CAS No. 1219810-16-8) alone or in co-treatment with test compound administered in dose response. On Day 2, fibroblasts were fixed and stained by the nuclear stain 4′, 6-diamidino-2-phenylindole (DAPI), and the number of DAPI-positive nuclei were counted for each condition using the Yokogawa CQ1 imaging platform to quantify the EC50 for cell survival.

[9] = tested on: phosphorylated serine-129 (pS129) alpha-synuclein; assay: Rat primary midbrain neuron co-culture, alpha-synuclein oligomer challenge with co-dosed/pre-treated compound: pS129 alpha-synuclein; type: cell-based; conditions: initial study, 40 nM, incubated with alpha-synuclein oligomer (FIG. 4C)
ferroptosis = conditions: described in Example 2 of PCT/US23/73312 as Compound 4; read-out: ferroptosis inhibitor EC50; cited from earlier work

C[C@@H](NC(=O)Cc1ccc(C(F)(F)F)cc1)c1cc2cnn(CC(F)(F)F)c2cn1 [Compound 1, (R)—N-(1-(1-(2,2,2-trifluoroethyl)-1H-pyrazolo[3,4-c]pyridin-5-yl)ethyl)-2-(4-(trifluoromethyl)phenyl)acetamide]
EC50 ([1]; alpha-synuclein oligomer challenge, read-out: EC50 for rescue of TH-positive neurite length): < 150 nM | EC50 ([1]; alpha-synuclein oligomer challenge, read-out: EC50 for rescue of TH-positive neuron viability): ~250 nM | TH+ neurite length [1]: did not affect | TH+ neuron count [1]: did not affect | dopamine neuron survival [1]: rescued dopamine neuron survival in a dose-dependent fashion | dopamine neuron neurite length [1]: rescued dopamine neuron neurite length in a dose-dependent fashion | TH+ dopaminergic neuron neurite length ([1]; pre-treated 400 nM): rescue of TH+dopaminergic neuron neurite length | TH-positive dopaminergic neuron viability ([1]; pre-treated 400 nM): rescue of TH-positive dopaminergic neuron viability | TH+ neuronal loss induced by alpha-synuclein oligomer ([1]; initial study, 400 nM, incubated with alpha-synuclein oligomer (FIG. 1A)): prevented TH+ neuronal loss | IC50 ([2]; alpha-synuclein oligomer challenge): < 125 nM | number of pS129+ TH+ neurons [2]: did not affect | levels of pathogenic pS129 alpha-synuclein [2]: lowered levels of pathogenic pS129 α-synin a dose-dependent fashion | pS129 alpha-syn-positive Lewy Body formation ([2]; pre-treated 400 nM): decrease/prevention in pS129 α-syn-positive Lewy Body formation | pS129 alpha-syn-positive Lewy Body formation in TH-negative non-dopaminergic neurons ([2]; pre-treatment 1.1 uM): robust decrease/prevention | pathogenic phosphorylated serine-129 (pS129) alpha-synuclein levels ([2]; initial study, 400 nM, incubated with alpha-synuclein oligomer (FIG. 1C)): reduction of pathogenic phosphorylated serine-129 (pS129) alpha-synuclein levels | Miro1 levels (Miro1 [3]): did not affect | rescue of Miro1 elevation due to alpha-synuclein oligomer challenge (Miro1 [3]): did not reach statistical significance | Miro1 protein levels (Miro1 [3]; pre-treated 400 nM): decrease in Miro1 protein levels | Miro1 release (Miro1 [3]; 400 nM, incubated with alpha-synuclein oligomer (FIG. 1B)): statistically significant rescue of Miro1 release | TH+ neurite length ([4]; doses of 370 nM, 3.3 µM, or 10 µM, compared to no treatment (FIG. 8B)): significantly restored | levels of phosphorylated Ser129-positive TH+ neurons ([5]; doses from 370 nM to 10 μM, compared to no treatment (FIG. 7B)): significantly reduced | Miro1 levels in TH+ neurons (Miro1 [6]): statistically significantly reduced | TH+ neuronal loss induced by alpha-synuclein oligomer [7]: prevented TH+ neuronal loss

CCN1CCN(c2ccc3nc4ccc(=O)cc-4sc3c2)CC1 [Compound 5, 7-(4-ethylpiperazin-1-yl)-3H-phenothiazin-3-one]
EC50 ([1]; read-out: EC50 for rescue of TH-positive neurite length): < 0.4 nM | EC50 ([1]; read-out: EC50 for rescue of TH-positive neuron viability): ~7 nM | TH+ neurite length [1]: did not affect | TH+ neuron count [1]: did not affect | dopamine neuron survival [1]: rescued dopamine neuron survival in a dose-dependent fashion | dopamine neuron neurite length [1]: rescued dopamine neuron neurite length in a dose-dependent fashion | TH+ dopaminergic neuron neurite length ([1]; pre-treated 40 nM): rescue of TH+dopaminergic neuron neurite length | TH-positive dopaminergic neuron viability ([1]; pre-treated 40 nM): rescue of TH-positive dopaminergic neuron viability | IC50 [2]: < 0.4 nM | number of pS129+ TH+ neurons [2]: did not affect | levels of pathogenic pS129 alpha-synuclein [2]: lowered levels of pathogenic pS129 α-synin a dose-dependent fashion | pS129 alpha-syn-positive Lewy Body formation ([2]; pre-treated 40 nM): decrease/prevention in pS129 α-syn-positive Lewy Body formation | pS129 alpha-syn-positive Lewy Body formation in TH-negative non-dopaminergic neurons ([2]; pre-treatment 3.7 nM): robust decrease/prevention | Miro1 levels (Miro1 [3]): did not affect | rescue of Miro1 elevation due to alpha-synuclein oligomer challenge (Miro1 [3]): did not reach statistical significance | Miro1 protein levels (Miro1 [3]; pre-treated 40 nM): decrease in Miro1 protein levels | Miro1 release (Miro1 [3]; 40 nM, incubated with alpha-synuclein oligomer (FIG. 4B)): statistically significant rescue of Miro1 release | EC50 [8]: 3.6 nM | pathogenic phosphorylated serine-129 (pS129) alpha-synuclein levels [9]: reduction of pathogenic phosphorylated serine-129 (pS129) alpha-synuclein levels

CC(C)N1[C@@H]2CC[C@H]1CN(c1ccc3nc4ccc(=O)cc-4sc3c1)C2 [Compound 9]
TH+ neurite length ([4]; doses of 11 nM, 33 nM, or 100 nM, compared to no treatment (FIG. 11B)): significantly restored | levels of phosphorylated Ser129-positive TH+ neurons ([5]; doses of 11 nM, 33 nM, or 100 nM, compared to no treatment (FIG. 10B)): significantly reduced | EC50 (ferroptosis): 2.9 nM
